Data taken from ChEMBL document CHEMBL1201862, “PubChem BioAssay data set” (2004).
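Step 1: Grow cells in 96-well plates. Step 2: Expose to compound for 48 hours at 5 concentrations. Step 3: Interpolate endpoints linearly; if unreached, use highest concentration. At the GI50, growth is halved.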 Activity calls are given as the source filed them. Cut-off read from the data, not from the text of the source: active = GI50 up to about 1.1 µM and inactive = higher.

Legend:
Experiment in all cases: inhibition of tumour cell growth, NCI panel, 48 h
KM12 = tested on: KM12
SW-620 = tested on: SW-620
CCRF-CEM = tested on: CCRF-CEM
OVCAR-4 = tested on: OVCAR-4
BT-549 = tested on: BT-549
CAKI-1 = tested on: CAKI-1
DU-145 = tested on: DU-145
EKVX = tested on: EKVX
MDA-MB-435 = tested on: MDA-MB-435
SF-295 = tested on: SF-295
UACC-257 = tested on: UACC-257
MDA-N = tested on: MDA-N
UO-31 = tested on: UO-31
LOX IMVI = tested on: LOX IMVI
RPMI-8226 = tested on: RPMI-8226
NCI-H460 = tested on: NCI-H460
SF-539 = tested on: SF-539
UACC-62 = tested on: UACC-62
SK-OV-3 = tested on: SK-OV-3
OVCAR-5 = tested on: OVCAR-5
SK-MEL-28 = tested on: SK-MEL-28
U-251 = tested on: U-251
NCI/ADR-RES = tested on: NCI/ADR-RES
K562 = tested on: K562
T47D = tested on: T47D
HCC 2998 = tested on: HCC 2998
OVCAR-8 = tested on: OVCAR-8
HCT-15 = tested on: HCT-15
HL-60 = tested on: HL-60
SNB-75 = tested on: SNB-75
IGROV-1 = tested on: IGROV-1
TK-10 = tested on: TK-10
MOLT-4 = tested on: MOLT-4
SK-MEL-5 = tested on: SK-MEL-5
HCT-116 = tested on: HCT-116
HOP-92 = tested on: HOP-92
786-0 = tested on: 786-0
A549 = tested on: A549
PC-3 = tested on: PC-3
HOP-62 = tested on: HOP-62
ACHN = tested on: ACHN
SR = tested on: SR
SNB-19 = tested on: SNB-19
M14 = tested on: M14
A498 = tested on: A498
COLO 205 = tested on: COLO 205
OVCAR-3 = tested on: OVCAR-3
SN12C = tested on: SN12C
SF-268 = tested on: SF-268
SK-MEL-2 = tested on: SK-MEL-2
Hs-578T = tested on: Hs-578T
HT-29 = tested on: HT-29
MCF7 = tested on: MCF7
MDA-MB-231 = tested on: MDA-MB-231
NCI-H226 = tested on: NCI-H226
NCI-H23 = tested on: NCI-H23
RXF 393 = tested on: RXF 393

SMILES: Oc1c(Br)cc(/C=C/c2ccnc(/C=C/c3cc(Br)c(O)c(Br)c3)c2)cc1Br
- GI50 (KM12): 19.1 µM (inactive)
- GI50 (SW-620): 35.6 µM (inactive)
- GI50 (CCRF-CEM): 22.6 µM (inactive)
- GI50 (OVCAR-4): 30.3 µM (inactive)
- GI50 (BT-549): 33.4 µM (inactive)
- GI50 (CAKI-1): 35.5 µM (inactive)
- GI50 (DU-145): 20.4 µM (inactive)
- GI50 (EKVX): 25.4 µM (inactive)
- GI50 (MDA-MB-435): 26.7 µM (inactive)
- GI50 (SF-295): 27.5 µM (inactive)
- GI50 (UACC-257): 26.2 µM (inactive)
- GI50 (MDA-N): 33.5 µM (inactive)
- GI50 (UO-31): 19.2 µM (inactive)
- GI50 (LOX IMVI): 29.2 µM (inactive)
- GI50 (RPMI-8226): 20.7 µM (inactive)
- GI50 (NCI-H460): 12.6 µM (inactive)
- GI50 (SF-539): 18.5 µM (inactive)
- GI50 (UACC-62): 24.3 µM (inactive)
- GI50 (SK-OV-3): 34.2 µM (inactive)
- GI50 (OVCAR-5): 25.5 µM (inactive)
- GI50 (SK-MEL-28): 39 µM (inactive)
- GI50 (U-251): 15.2 µM (inactive)
- GI50 (NCI/ADR-RES): 31.6 µM (inactive)
- GI50 (K562): 24.2 µM (inactive)
- GI50 (T47D): 16.7 µM (inactive)
- GI50 (HCC 2998): 25.8 µM (inactive)
- GI50 (OVCAR-8): 26.8 µM (inactive)
- GI50 (HCT-15): 23.6 µM
- GI50 (HL-60): 14.5 µM (inactive)
- GI50 (SNB-75): 19.1 µM (inactive)
- GI50 (IGROV-1): 32.4 µM (inactive)
- GI50 (TK-10): 27.2 µM (inactive)
- GI50 (MOLT-4): 21 µM (inactive)
- GI50 (SK-MEL-5): 19.1 µM (inactive)
- GI50 (HCT-116): 17 µM (inactive)
- GI50 (HOP-92): 30.8 µM (inactive)
- GI50 (786-0): 18.2 µM (inactive)
- GI50 (A549): 23.6 µM (inactive)
- GI50 (PC-3): 16.4 µM (inactive)
- GI50 (HOP-62): 34.4 µM (inactive)
- GI50 (ACHN): 28.4 µM (inactive)
- GI50 (SR): 17.8 µM (inactive)
- GI50 (SNB-19): 35.8 µM (inactive)
- GI50 (M14): 25.1 µM (inactive)
- GI50 (A498): 18.9 µM (inactive)
- GI50 (COLO 205): 27.4 µM (inactive)
- GI50 (OVCAR-3): 19.7 µM (inactive)
- GI50 (SN12C): 51.3 µM (inactive)
- GI50 (SF-268): 40.3 µM (inactive)
- GI50 (SK-MEL-2): 14.9 µM (inactive)
- GI50 (Hs-578T): 54.2 µM (inactive)
- GI50 (HT-29): 21.7 µM (inactive)
- GI50 (MCF7): 24.2 µM (inactive)
- GI50 (MDA-MB-231): 21.9 µM (inactive)

SMILES: CCOC(=O)c1c(C)[n+]([O-])c2cc(Cl)c(Cl)cc2[n+]1[O-]
- GI50 (KM12): 7.89 µM (inactive)
- GI50 (CCRF-CEM): 18.5 µM (inactive)
- GI50 (OVCAR-4): 17.5 µM (inactive)
- GI50 (BT-549): 19.8 µM (inactive)
- GI50 (CAKI-1): 18 µM (inactive)
- GI50 (DU-145): 16.6 µM (inactive)
- GI50 (NCI-H226): 12 µM (inactive)
- GI50 (EKVX): 24.1 µM (inactive)
- GI50 (MDA-MB-435): 18.6 µM (inactive)
- GI50 (SF-295): 29.4 µM (inactive)
- GI50 (NCI-H23): 10.7 µM (inactive)
- GI50 (RXF 393): 17.2 µM (inactive)
- GI50 (UACC-257): 16.9 µM (inactive)
- GI50 (MDA-N): 31 µM (inactive)
- GI50 (UO-31): 24.5 µM (inactive)
- GI50 (LOX IMVI): 15.3 µM (inactive)
- GI50 (RPMI-8226): 14.4 µM (inactive)
- GI50 (NCI-H460): 16.3 µM (inactive)
- GI50 (SF-539): 26.1 µM (inactive)
- GI50 (UACC-62): 15.8 µM (inactive)
- GI50 (SK-OV-3): 26.7 µM (inactive)
- GI50 (OVCAR-5): 43.6 µM (inactive)
- GI50 (SK-MEL-28): 29.4 µM (inactive)
- GI50 (U-251): 32.1 µM (inactive)
- GI50 (NCI/ADR-RES): 23.8 µM (inactive)
- GI50 (K562): 31.4 µM (inactive)
- GI50 (T47D): 16 µM (inactive)
- GI50 (HCC 2998): 13.7 µM (inactive)
- GI50 (OVCAR-8): 19.7 µM (inactive)
- GI50 (HCT-15): 14.3 µM
- GI50 (HL-60): < 0.01 µM (active)
- GI50 (IGROV-1): 7.6 µM (inactive)
- GI50 (TK-10): 18.1 µM (inactive)
- GI50 (MOLT-4): 16.2 µM (inactive)
- GI50 (SK-MEL-5): 16.7 µM (inactive)
- GI50 (HCT-116): 18.9 µM (inactive)
- GI50 (HOP-92): 3.54 µM (inactive)
- GI50 (786-0): 28.3 µM (inactive)
- GI50 (A549): 14.6 µM (inactive)
- GI50 (PC-3): 26.9 µM (inactive)
- GI50 (HOP-62): 21 µM (inactive)
- GI50 (ACHN): 29.3 µM (inactive)
- GI50 (SR): 8.02 µM (inactive)
- GI50 (SNB-19): 36.8 µM (inactive)
- GI50 (M14): 23.1 µM (inactive)
- GI50 (A498): 20.3 µM (inactive)
- GI50 (COLO 205): 19.7 µM (inactive)
- GI50 (OVCAR-3): 15.6 µM (inactive)
- GI50 (SN12C): 20.4 µM (inactive)
- GI50 (SF-268): 24.5 µM (inactive)
- GI50 (SK-MEL-2): 23.3 µM (inactive)
- GI50 (Hs-578T): 24.1 µM (inactive)
- GI50 (HT-29): 33.5 µM (inactive)
- GI50 (MCF7): 32.5 µM (inactive)
- GI50 (MDA-MB-231): 21.1 µM (inactive)
